Test results taken from patent publication US8471063B2, “Michael systems as transglutaminase inhibitors” (Zedira GmbH, priority 2006, dated 2013).
*1 amine or outer side, *2 acyl side, *3 side chain or, on linkers, in order; H or OH if unused. Where a SMILES comes first, the peptide text is derived from it. [ ]: non-standard residue; d: D form. The star is where a group is joined. ξ: configuration not given here. Nle(5E-ene,6-CO2Et) = CCOC(=O)/C=C/CC[C@H](N)C(=O)O; X2 = COC(=O)/C=C/CC[C@H](N[*:1])C(=O)[*:2]; Ile(3ξ) = CCC(C)[C@H](N)C(=O)O; Cbz = O=C(OCc1ccccc1)*

Legend:
Assay type in all cases: biochemical
[1] = biological target: T1, recombinant human tissue transglutaminase (His6-rh-TG2) (Homo sapiens, UniProt P21980); test: Inactivation of human tissue transglutaminase, fluorescence assay, IC50; settings: 5 min preincubation, 37° C.
T1 sequence (P21980 1-687): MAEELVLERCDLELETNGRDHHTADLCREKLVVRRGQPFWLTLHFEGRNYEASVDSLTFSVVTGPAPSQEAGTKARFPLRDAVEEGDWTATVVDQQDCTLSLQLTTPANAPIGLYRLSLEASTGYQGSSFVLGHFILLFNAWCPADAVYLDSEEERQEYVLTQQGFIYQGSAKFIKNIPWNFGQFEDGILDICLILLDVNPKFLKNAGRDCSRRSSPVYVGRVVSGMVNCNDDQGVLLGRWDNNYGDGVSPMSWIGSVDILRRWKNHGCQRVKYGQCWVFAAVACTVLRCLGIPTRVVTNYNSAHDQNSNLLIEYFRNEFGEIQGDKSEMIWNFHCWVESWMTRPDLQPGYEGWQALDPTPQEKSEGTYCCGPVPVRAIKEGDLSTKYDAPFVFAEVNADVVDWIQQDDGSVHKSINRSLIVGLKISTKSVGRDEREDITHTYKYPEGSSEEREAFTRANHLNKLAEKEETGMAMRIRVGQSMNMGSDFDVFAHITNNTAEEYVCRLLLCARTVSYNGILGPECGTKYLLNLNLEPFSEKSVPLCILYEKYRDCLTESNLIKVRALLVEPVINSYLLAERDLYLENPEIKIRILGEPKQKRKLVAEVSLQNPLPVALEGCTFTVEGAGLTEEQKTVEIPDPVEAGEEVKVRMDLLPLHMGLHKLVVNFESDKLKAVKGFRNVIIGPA
Procedure: 250 μg of lyophilized his-tagged recombinant human tissue transglutaminase (His6-rh-TG2) are reconstituted by the addition of 150 μl of water (resulting buffer 50 mM of NaH2PO4, 150 mM of NaCl, pH=8).
A 10 mM inhibitor stock solution in DMSO is prepared and diluted with buffer (50 mM of Tris-HCl, 10 mM of CaCl2, 5 mM of DTT, pH=7.5, respectively) to the 20-fold of the concentration desired for the inhibition mixture (at least 1/50 dilution resulting in 2% DMSO concentration).
900 μl of an assay solution composed of 55.56 mM of Tris, 11.11 mM of CaCl2, 0.11% PEG8000, 5.56 mM of DTT, 5.56 mM of glycine methyl ester and 50 μM of Abz-APE(CAD-DNP)QEA-OH, (patent number:), pH=7.5 are placed in a cuvette and brought to a temperature of 37° C. in the measuring cell of a spectrophotometer. 50 μl of the respective inhibitor solution are added to said solution (resulting in a concentration of less than 0.2% of DMSO in the mixture).
7 μl of the transglutaminase solution reconstituted above are diluted with 51 μl of buffer (50 mM of Tris, 100 mM of NaCl, 5 mM of DTT, pH=7.5). 50 μl of said enzyme solution (10 μg His6-rhTG2) are added to the assay solution containing the respective inhibitor concentration. The mixture is incubated for 5 min at 37° C. before the measurement is performed. λexc=313 nm and λem=418 nm, 15 min)
The resulting enzyme activity was measured by analyzing the slope of the straight line obtained by the increase in fluorescence.
DMSO is used instead of inhibitor stock solution in order to determine the non-inhibited enzyme activity. IC50 values are determined by plotting the resulting enzyme activity against the logarithm of the inhibitor concentration. IC50 is defined as the concentration of an inhibitor at which enzyme activity is reduced to 50% after 5 min of preincubation.

FXIII = biological target: T2, FXIII (Homo sapiens, UniProt P00488); test: Transglutaminase inhibition, IC50 at FXIII
T2 sequence (P00488 1-732): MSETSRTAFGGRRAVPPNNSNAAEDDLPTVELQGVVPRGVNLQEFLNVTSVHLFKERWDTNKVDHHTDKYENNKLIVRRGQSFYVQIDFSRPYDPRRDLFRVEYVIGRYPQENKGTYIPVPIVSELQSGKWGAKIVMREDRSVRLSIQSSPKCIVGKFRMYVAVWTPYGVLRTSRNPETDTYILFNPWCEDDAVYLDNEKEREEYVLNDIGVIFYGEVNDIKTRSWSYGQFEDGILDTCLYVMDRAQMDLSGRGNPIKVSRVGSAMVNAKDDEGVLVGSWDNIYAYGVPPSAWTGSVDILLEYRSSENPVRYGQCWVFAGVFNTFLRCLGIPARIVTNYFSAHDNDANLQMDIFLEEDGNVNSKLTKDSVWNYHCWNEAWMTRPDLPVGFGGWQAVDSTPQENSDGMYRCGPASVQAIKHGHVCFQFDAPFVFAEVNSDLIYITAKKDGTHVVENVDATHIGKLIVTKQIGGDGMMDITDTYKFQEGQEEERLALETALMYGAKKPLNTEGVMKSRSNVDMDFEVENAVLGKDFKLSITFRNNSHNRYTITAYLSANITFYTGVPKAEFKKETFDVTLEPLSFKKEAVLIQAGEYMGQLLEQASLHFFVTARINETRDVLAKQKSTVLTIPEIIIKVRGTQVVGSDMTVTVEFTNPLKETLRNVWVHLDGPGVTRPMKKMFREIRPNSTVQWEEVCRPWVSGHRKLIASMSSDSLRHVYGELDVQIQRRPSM

TG1 = biological target: T3, TG1 (Homo sapiens, UniProt P22735); test: Transglutaminase inhibition, IC50 at TG1
T3 sequence (P22735 1-817): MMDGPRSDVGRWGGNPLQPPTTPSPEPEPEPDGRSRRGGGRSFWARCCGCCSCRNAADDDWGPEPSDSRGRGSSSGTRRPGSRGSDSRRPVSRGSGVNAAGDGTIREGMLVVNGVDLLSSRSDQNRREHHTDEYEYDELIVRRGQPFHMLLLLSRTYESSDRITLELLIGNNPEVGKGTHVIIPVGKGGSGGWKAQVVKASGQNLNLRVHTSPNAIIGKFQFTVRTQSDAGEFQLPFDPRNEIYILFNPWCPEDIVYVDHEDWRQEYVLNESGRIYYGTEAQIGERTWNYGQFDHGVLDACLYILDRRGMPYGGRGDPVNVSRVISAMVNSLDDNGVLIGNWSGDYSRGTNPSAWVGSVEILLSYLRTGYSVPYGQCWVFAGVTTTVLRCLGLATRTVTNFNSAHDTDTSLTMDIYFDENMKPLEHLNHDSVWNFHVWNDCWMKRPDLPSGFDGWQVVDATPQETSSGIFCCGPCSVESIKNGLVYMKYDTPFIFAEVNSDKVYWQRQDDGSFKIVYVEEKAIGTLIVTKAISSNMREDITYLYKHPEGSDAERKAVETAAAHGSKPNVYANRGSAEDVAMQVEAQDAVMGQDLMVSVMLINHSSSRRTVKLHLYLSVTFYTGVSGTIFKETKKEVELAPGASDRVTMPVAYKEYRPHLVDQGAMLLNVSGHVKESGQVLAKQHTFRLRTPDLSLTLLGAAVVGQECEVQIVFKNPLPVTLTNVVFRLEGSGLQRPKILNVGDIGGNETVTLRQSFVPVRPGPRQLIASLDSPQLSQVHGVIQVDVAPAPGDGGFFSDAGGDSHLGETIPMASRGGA

Compound `COC(=O)/C=C/CC[C@H](NC(=O)[C@H](CC(N)=O)NC(C)=O)C(=O)N[C@@H](CCC(=O)O)C(=O)N[C@@H](C)C(=O)N[C@H](C(=O)OC)C(C)C` [Compound 7, N^α-acetyl-L-asparaginyl-{[(E)-(L)-6-amino-hept-2-ene-dicarboxylic acid]-1-methanoyl}-L-glutamyl-L-alaninyl-L-valine methyl ester] (Ac-N[X2]EAV-OMe) has an IC50 ([1]; Table 1) of over 50 µM, an IC50 (FXIII; Table 1) of 2 µM and an IC50 (TG1; Table 1) of over 50 µM.
`CCC(C)[C@H](NC(=O)[C@@H](NC(=O)[C@H](CC(C)C)NC(=O)[C@H](CO)NC(=O)[C@H](CC/C=C/C(=O)OC)NC(=O)CNC(=O)[C@@H]1CCCN1C(=O)CNC(=O)[C@H](CC(C)C)NC(C)=O)C(C)C)C(=O)NCC(=O)OC` (stereo partly drawn) [Compound 8, N^α-acetyl-L-leucinyl-glycinyl-L-prolinyl-glycinyl-{[(E)-(L)-6-amino-hept-2-ene-dicarboxylic acid]-1-ethanoyl}-L-serinyl-L-leucinyl-L-valinyl-L-isoleucinyl-glycine methyl ester] (Ac-LGPG[X2]SLV[Ile(3ξ)]G-OMe) was tested, and the IC50 ([1]; Table 1) was over 50 µM, the IC50 (FXIII; Table 1) was 0.5 µM and the IC50 (TG1; Table 1) was over 50 µM.
In the case of `CCCCCNC(=O)/C=C/CC[C@H](NC(C)=O)C(=O)N[C@@H](CCC(N)=O)C(=O)N[C@@H](CC(=O)O)C(=O)N1CCC[C@H]1C(=O)OC` [Compound 3.2.6, Nr-acetyl-{[(E)-(L)-6.amino-hept-2-ene-dicarboxylic acid]-1-pentylamido}-L-glutaminyl-L-asparatyl-L-proline methyl ester], the IC50 ([1]; Table 2) is reported as over 100 µM, the IC50 (FXIII; Table 2) is reported as over 100 µM and the IC50 (TG1; Table 2) is reported as 23 µM.
`CCOC(=O)/C=C/CC[C@H](NC(=O)OCc1ccccc1)C(=O)N[C@@H](Cc1ccccc1)C(=O)OC` [Compound 3, N^α-benzyloxycarbonyl-{[(E)-(L)-6-amino-hept-2-ene-dicarboxylic acid]-1-ethanoyl}-L-phenylalanine methyl ester] gave an IC50 ([1]; Table 1) of 8 µM, an IC50 (FXIII; Table 1) of 2.5 µM and an IC50 (TG1; Table 1) of 0.2 µM.
Work on `COC(=O)C(CC(C)C)NC(=O)C1CCCN1C(=O)C(CCC(N)=O)NC(=O)C(CCC=CC(=O)O)NC(=O)OCc1ccccc1` [Compound 3.2.5, N^α-benzyloxycarbonyl)-[(E)-(L)-6-amino-hept-2-ene-dicarboxylic acid]-L-glutaminyl-L-prolinyl-L-leucine methyl ester] yielded an IC50 ([1]; Table 2) of 23 µM and an IC50 (FXIII; Table 2) of over 100 µM.
Compound `COC(=O)[C@H](CC(C)C)NC(=O)[C@@H]1CCCN1C(=O)[C@H](CCC(N)=O)NC(=O)[C@H](CC/C=C1\CCOC1=O)NC(=O)OCc1ccccc1` [Compound 3.2.4, N^α-benzyloxycarbonyl[(L)-2-amino-5-(2-oxo-dihydrofurane-(3E)-ylidene)]-pentanoyl-L-glutaminyl-L-prolinyl-L-Ieucine methyl ester] has an IC50 ([1]; Table 2) of 8.9 µM, an IC50 (FXIII; Table 2) of over 100 µM and an IC50 (TG1; Table 2) of 0.4 µM.
Work on `CC(C)CC(NC(=O)C1CCCCN1C(=O)C(Cc1ccccc1)NC(=O)C(CCC=CC(=O)OCc1ccccc1)NC(=O)OCc1ccccc1)C(N)=O` [Compound 3.2.8, N^α-benzyloxycarbonyl)-{[(E)-(L)-6-amino-hept-2-ene-dicarboxylic acid]-1-benzoyl}-L-phenylalaninyl-L-homoprolinyl-L-leucinyl amide] yielded an IC50 ([1]; Table 2) of 0.13 µM, an IC50 (FXIII; Table 2) of over 100 µM and an IC50 (TG1; Table 2) of 0.825 µM.
Compound `COC(=O)[C@H](CC(C)C)NC(=O)[C@@H]1CCCN1C(=O)[C@H](CCC(N)=O)NC(=O)[C@H](CCC1=CC(=O)CC1)NC(=O)OCc1ccccc1` [Compound 3.2.3, N^α-benzyloxycarbonyl-[(L)-2-amino-4-(3)-oxo-cyclopent-1-enyl]-butyryl-L-glutaminyl-L-prolinyl-L-leucine methyl ester] has an IC50 ([1]; Table 2) of 18 µM, an IC50 (FXIII; Table 2) of over 100 µM and an IC50 (TG1; Table 2) of 14 µM.
`CCOC(=O)/C=C/CC[C@H](NC(=O)OCc1ccccc1)C(=O)N[C@@H](CCC(N)=O)C(=O)N1CCC[C@H]1C(=O)N[C@@H](CC(C)C)C(=O)OC` [Compound 2, N^α-benzyloxycarbonyl-{[(E)-(L)-6-amino-hept-2-ene-dicarboxylic acid]-1-ethanoyl}-L-glutaminyl-L-prolinyl-L-leucine methyl ester] (Cbz-[Nle(5E-ene,6-CO2Et)]QPL-OMe) showed an IC50 ([1]; Table 1) of 0.02 µM and an IC50 (FXIII; Table 1) of over 50 µM.
`CCOC(=O)/C=C/CC[C@H](NC(=O)OCc1ccccc1)C(=O)N[C@H](C(=O)N1CCC[C@H]1C(=O)NCCC(C)C)C(C)C` [Compound 5] gave an IC50 ([1]; Table 1) of 0.125 µM and an IC50 (FXIII; Table 1) of over 50 µM.
`COC(=O)/C=C/CC[C@H](NC(=O)OCc1ccccc1)C(=O)N[C@@H](CCC(N)=O)C(=O)N1CCC[C@H]1C(=O)OC` [Compound 4, N^α-benzyloxycarbonyl-{[(E)-(L)-6-amino-hept-2-ene-dicarboxylic acid]-1-methanoyl}-L-glutaminyl-L-proline methyl ester] gave an IC50 ([1]; Table 1) of 0.35 µM and an IC50 (FXIII; Table 1) of over 50 µM.
`CCOC(=O)/C=C/CC[C@@H](C(=O)N[C@H](C(=O)N1CCC[C@H]1C(=O)OC)C(C)C)N1CCCC1=O` [Compound 6, [(E)-(L)-6-(2-oxo-pyrrolidon-1-yl)-hept-2-ene-dicarboxylic acid 1-ethanoyl]-L-valinyl-L-proline methyl ester] was tested, and the IC50 ([1]; Table 1) was 15 µM and the IC50 (FXIII; Table 1) was over 50 µM.
